Measurements reported in US12545652B2, “Crystalline forms of a TYK2 inhibitor” (Sareum Limited, priority 2020, dated 2026).

Experiment: Anti-solvent addition crystallisation at 60° C., observations and form fate by XRPD
Format: physicochemical
Settings: for Crystalline Form fate by XRPD: Addition at 60° C.
Protocol: The equilibration of Form A in a range of solvents with thermal modulation indicated a range of suitable solvents and anti-solvents. Consequently, Form A was dissolved in a range of four solvents at an elevated temperature, clarified and charged with anti-solvent at the elevated temperature to assess the propensity of the compound towards anti-solvent-driven crystallisation.
2-(2,6-dichlorophenyl)-5-[4-(1,1-dioxo-1,4-thiazinane-4-carbonyl)anilino]oxazole-4-carboxamide Form A, 4×150-152 mg, was weighed into four crystallisation tubes. Four different solvents (see Table 8) were then charged to the solids and the resulting mixtures heated to 60° C. Where suspensions persisted, additional solvent was charged to achieve dissolution. Upon dissolution of the four mixtures, the solutions were clarified and aliquots containing ca. 30 mg of the compound were charged to four crystallisation tubes.
To each of the four aliquots was charged an anti-solvent (see Table 8), ca. 5 vol., at 60° C. and immediate observations were made. Observations were made after equilibration for 1 hour before additional anti-solvent, 5 vol., was charged to all mixtures. Where suspensions or immiscible mixtures had formed, no further anti-solvent was charged. To all solutions and hazes, additional anti-solvent up to 20 vol. total charge was added.
The mixtures were equilibrated at 60° C. for another hour before cooling to 25° C. over ca. 3 hours and equilibrated for ca. 14½ hours. […] Upon isolation, all solids were dried in vacuo under air for ca. 1 hour and then dried in the oven in vacuo at 45° C. for 70 hours.

Compound: NC(=O)c1nc(-c2c(Cl)cccc2Cl)oc1Nc1ccc(C(=O)N2CCS(=O)(=O)CC2)cc1 [Form A, 2-(2,6-dichlorophenyl)-5-[4-(1,1-dioxo-1,4-thiazinane-4-carbonyl)anilino]oxazole-4-carboxamide]
- Observation on outcome (ID B4, THF 25 vol., 2-Chlorobutane, 60° C., 5 vol. anti-solvent, Immediate): Soln.
- Observation on outcome (ID B4, THF 25 vol., 2-Chlorobutane, 60° C., 10 vol. anti-solvent): Susp.
- Observation on outcome (ID C1, Nitromethane 50 vol., Cyclohexane, 25° C., 20 vol, 19 Hrs): Bi. Susp.
- Observation on outcome (ID C1, Nitromethane 50 vol., Cyclohexane, 60° C., 5 vol. anti-solvent, 1 Hr): Immiscible
- Observation on outcome (ID C1, Nitromethane 50 vol., Cyclohexane, 60° C., 5 vol. anti-solvent, Immediate): Immiscible
- Observation on outcome (ID C1, Nitromethane 50 vol., Cyclohexane, 60° C., 10 vol. anti-solvent): Immiscible
- Observation on outcome (ID C2, Nitromethane 50 vol., Heptane, 25° C., 20 vol, 19 Hrs): Bi. Susp.
- Observation on outcome (ID C2, Nitromethane 50 vol., Heptane, 60° C., 5 vol. anti-solvent, 1 Hr): Soln.
- Observation on outcome (ID C2, Nitromethane 50 vol., Heptane, 60° C., 5 vol. anti-solvent, Immediate): Soln.
- Observation on outcome (ID C2, Nitromethane 50 vol., Heptane, 60° C., 10 vol. anti-solvent): Soln.
- Observation on outcome (ID C2, Nitromethane 50 vol., Heptane, 60° C., 15 vol. anti-solvent): Soln.
- Observation on outcome (ID C2, Nitromethane 50 vol., Heptane, 60° C., 20 vol. anti-solvent): Soln.
- Observation on outcome (ID C3, Nitromethane 50 vol., Benzotrifluoride, 25° C., 20 vol, 19 Hrs): Susp.
- Observation on outcome (ID C3, Nitromethane 50 vol., Benzotrifluoride, 60° C., 5 vol. anti-solvent, 1 Hr): Soln.
- Observation on outcome (ID C3, Nitromethane 50 vol., Benzotrifluoride, 60° C., 5 vol. anti-solvent, Immediate): Soln.
- Observation on outcome (ID C3, Nitromethane 50 vol., Benzotrifluoride, 60° C., 10 vol. anti-solvent): Soln.
- Observation on outcome (ID C3, Nitromethane 50 vol., Benzotrifluoride, 60° C., 15 vol. anti-solvent): Soln.
- Observation on outcome (ID C3, Nitromethane 50 vol., Benzotrifluoride, 60° C., 20 vol. anti-solvent): Soln.
- Observation on outcome (ID C4, Nitromethane 50 vol., 2-Chlorobutane, 25° C., 20 vol, 19 Hrs): Susp.
- Observation on outcome (ID C4, Nitromethane 50 vol., 2-Chlorobutane, 60° C., 5 vol. anti-solvent, 1 Hr): Soln.
- Observation on outcome (ID C4, Nitromethane 50 vol., 2-Chlorobutane, 60° C., 5 vol. anti-solvent, Immediate): Soln.
- Observation on outcome (ID C4, Nitromethane 50 vol., 2-Chlorobutane, 60° C., 10 vol. anti-solvent): Soln.
- Observation on outcome (ID C4, Nitromethane 50 vol., 2-Chlorobutane, 60° C., 15 vol. anti-solvent): Soln.
- Observation on outcome (ID C4, Nitromethane 50 vol., 2-Chlorobutane, 60° C., 20 vol. anti-solvent): Soln.
- Observation on outcome (ID D1, MeCN/water, 4:1 55 vol., Cyclohexane, 25° C., 20 vol, 19 Hrs): Immiscible
- Observation on outcome (ID D1, MeCN/water, 4:1 55 vol., Cyclohexane, 60° C., 5 vol. anti-solvent, 1 Hr): Immiscible
- Observation on outcome (ID D1, MeCN/water, 4:1 55 vol., Cyclohexane, 60° C., 5 vol. anti-solvent, Immediate): Immiscible
- Observation on outcome (ID D1, MeCN/water, 4:1 55 vol., Cyclohexane, 60° C., 10 vol. anti-solvent): Immiscible
- Observation on outcome (ID D2, MeCN/water, 4:1 55 vol., Heptane, 25° C., 20 vol, 19 Hrs): Bi. Susp.
- Observation on outcome (ID D2, MeCN/water, 4:1 55 vol., Heptane, 60° C., 5 vol. anti-solvent, 1 Hr): Immiscible
- Observation on outcome (ID D2, MeCN/water, 4:1 55 vol., Heptane, 60° C., 5 vol. anti-solvent, Immediate): Immiscible
- Observation on outcome (ID D2, MeCN/water, 4:1 55 vol., Heptane, 60° C., 10 vol. anti-solvent): Immiscible
- Observation on outcome (ID D3, MeCN/water, 4:1 55 vol., Benzotrifluoride, 25° C., 20 vol, 19 Hrs): Susp.
- Observation on outcome (ID D3, MeCN/water, 4:1 55 vol., Benzotrifluoride, 60° C., 5 vol. anti-solvent, 1 Hr): Soln.
- Observation on outcome (ID D3, MeCN/water, 4:1 55 vol., Benzotrifluoride, 60° C., 5 vol. anti-solvent, Immediate): Soln.
- Observation on outcome (ID D3, MeCN/water, 4:1 55 vol., Benzotrifluoride, 60° C., 10 vol. anti-solvent): Haze
- Observation on outcome (ID D3, MeCN/water, 4:1 55 vol., Benzotrifluoride, 60° C., 15 vol. anti-solvent): Immiscible
- Observation on outcome (ID D3, MeCN/water, 4:1 55 vol., Benzotrifluoride, 60° C., 20 vol. anti-solvent): Immiscible
- Observation on outcome (ID D4, MeCN/water, 4:1 55 vol., 2-Chlorobutane, 25° C., 20 vol, 19 Hrs): Bi. Susp.
- Observation on outcome (ID D4, MeCN/water, 4:1 55 vol., 2-Chlorobutane, 60° C., 5 vol. anti-solvent, 1 Hr): Soln.
- Observation on outcome (ID D4, MeCN/water, 4:1 55 vol., 2-Chlorobutane, 60° C., 5 vol. anti-solvent, Immediate): Soln.
- Observation on outcome (ID D4, MeCN/water, 4:1 55 vol., 2-Chlorobutane, 60° C., 10 vol. anti-solvent): Haze
- Observation on outcome (ID D4, MeCN/water, 4:1 55 vol., 2-Chlorobutane, 60° C., 15 vol. anti-solvent): Haze
- Observation on outcome (ID D4, MeCN/water, 4:1 55 vol., 2-Chlorobutane, 60° C., 20 vol. anti-solvent): Haze
- Crystalline Form fate by XRPD (MeCN/water, 4:1 55 vol., 2-Chlorobutane): Form A
- Crystalline Form fate by XRPD (MeCN/water, 4:1 55 vol., Benzotrifluoride): Form A
- Crystalline Form fate by XRPD (MeCN/water, 4:1 55 vol., Heptane): Form A
- Crystalline Form fate by XRPD (Nitromethane 50 vol., 2-Chlorobutane): Form C +
- Crystalline Form fate by XRPD (Nitromethane 50 vol., Benzotrifluoride): Form B
- Crystalline Form fate by XRPD (Nitromethane 50 vol., Heptane): Form B
- Crystalline Form fate by XRPD (THF 25 vol., 2-Chlorobutane): Form B
- Crystalline Form fate by XRPD (THF 25 vol., Benzotrifluoride): Form B
- Crystalline Form fate by XRPD (THF 25 vol., Heptane): Form B
- Crystalline Form fate by XRPD (THF/water, 4:1 10 vol., 2-Chlorobutane): Form A
- Crystalline Form fate by XRPD (THF/water, 4:1 10 vol., Benzotrifluoride): Form A
